Assay results as given in the NIST ThermoML archive (doi:10.1016/j.tca.2017.07.015).
Numbers after ± are expanded uncertainties.

Legend:
[1] = Molar enthalpy of transition or fusion; conditions: Crystal; DSC
[2] = Crystal; DTA

Molar enthalpy of transition or fusion [1]: 3.39 ± 0.335 kcal/mol
Normal melting temperature [2]: 29.70 ± 0.5 °C
Structure (SMILES): ON=Cc1ccccc1 [benzaldehyde oxime]
